In publication PMC12175177 (Frontiers in Pharmacology, 2025):
Structures can show the parent of a compound that is named as a salt. Where two headings read alike, the source gives them in different places.

Columns and labels:
Assay type in all cases: cell-based
[1] = test system: SARS-CoV-2 Delta variant (SEQ203); conditions: for % inhibition Vero E6 Delta MOI 0.0001 / % inhibition Vero E6 Delta MOI 0.01: at MNCC, 48 h; for % inhibition Vero E6 Delta MOI 0.0001: 1x; for % inhibition Vero E6 Delta MOI 0.01: mean 2x
[2] = test system: SARS-CoV-2 A2.5 variant (M2169); conditions: at MNCC, […], 48 h, 1x
[3] = test system: SARS-CoV-2 Delta variant (SEQ203); conditions: at MNCC, 48 h, 1x
[4] = test system: SARS-CoV-2 A2.5 variant (M2169); conditions: at MNCC; […]; 48 h; mean 2x
SARS-CoV-2 A2.5 variant = assay: microbe, parasite or virus in culture; conditions: for IC50: Severe acute respiratory syndrome coronavirus 2, Vero C1008, 72 h; for IC90: Severe acute respiratory syndrome coronavirus 2, Vero C1008

Row | Molecule | % inhibition Vero E6 Delta MOI 0.0001 [1] [%] | % inhibition Vero E6 Delta MOI 0.01 [1] [%] | % inhibition Vero E6 A2.5 MOI 0.01 [2] | % inhibition Calu-3 Delta MOI 0.01 [3] [%] | % inhibition Calu-3 A2.5 MOI 0.01 [4] | antiviral inhibition at MOI = 0.00001 [1] [%] | also measured
1 | CN(C)C(=O)COC(=O)Cc1ccc(OC(=O)c2ccc(NC(=N)N)cc2)cc1 [Camostat mesylate (CAM), Camostat mesylate] | 0 | 7 | 2% | 4 | 16% |  | 
2 | CCN(CCO)CCCC(C)Nc1ccnc2cc(Cl)ccc12 (stereo not drawn) [Hydroxychloroquine Minsa (HCQ-m), Hydroxychloroquine] | 43 | 18 | 0% |  |  |  | 
3 | C[C@H]1[C@H](OC(=O)CCC(=O)O)O[C@@H]2O[C@@]3(C)CC[C@H]4[C@H](C)CC[C@@H]1[C@@]24OO3 [Artesunate injection (ASi), Artesunate] | 41 |  | 0% |  | 10% | ≥ 20 | less potent against the Delta compared to the A2.5 variant [1]: 20%; IC50 (SARS-CoV-2 A2.5 variant; read-out: IC50%): 28.7 µM; IC50 (SARS-CoV-2 A2.5 variant; read-out: IC50% in µg/mL): 11 µg/mL; IC90 (SARS-CoV-2 A2.5 variant; read-out: IC90%): 258 µM; IC90 (SARS-CoV-2 A2.5 variant; read-out: IC90% in µg/mL): 99.3 µg/mL
4 | C=C[C@H]1C[N@@]2CC[C@H]1C[C@H]2[C@H](O)c1ccnc2ccc(OC)cc12 [Quinine Sulfate (QN), Quinine Sulfate] | 0 | 9 | 18% |  | 0% |  | 
5 | CN1CCN(CCCN2c3ccccc3Sc3ccc(Cl)cc32)CC1 [Prochlorperazine (PCPZ), Prochlorperazine] | 6 | 6 | 0% | 0 | 16% |  | 
6 | CC[C@H]1OC(=O)[C@H](C)[C@@H](O[C@H]2C[C@@](C)(OC)[C@@H](O)[C@H](C)O2)[C@H](C)[C@@H](O[C@@H]2O[C@H](C)C[C@H](N(C)C)[C@H]2O)[C@](C)(O)C[C@@H](C)CN(C)[C@H](C)[C@@H](O)[C@]1(C)O [Azithromycin dehydrate (AZH), Azithromycin dehydrate] | 25 | 8 | 0% | 2 | 19% | ≥ 20 | 
7 | OC(c1cc(C(F)(F)F)nc2c(C(F)(F)F)cccc12)C1CCCCN1 (stereo not drawn) [Mefloquine (MQ), Mefloquine] | 45 | 6 | 16% | 0 | 8% | ≥ 20 | 
8 | CCO[C@H]1O[C@@H]2O[C@@]3(C)CC[C@H]4[C@H](C)CC[C@@H]([C@H]1C)[C@@]24OO3 [Arteether (AE), Arteether] | 23 | 8 | 10% | 5 | showed activity | ≥ 20 | 
9 | C[C@H]1[C@H](OC(=O)CCC(=O)O)O[C@@H]2O[C@@]3(C)CC[C@H]4[C@H](C)CC[C@@H]1[C@@]24OO3 [Artesunic acid (AS), Artesunic acid] | 37 | 18 | 45% | 42 |  |  | % inhibition Calu-3 Delta MOI 0.01 ([3]; listed as AS): effective
10 | NC(=O)c1ncn([C@@H]2O[C@H](CO)[C@@H](O)[C@H]2O)n1 [Ribavirin (RIB), Ribavirin] | 44 | 8 | 9% | -6 | 11% | ≥ 20 | 
11 | C[C@H]1[C@H](N2CCS(=O)(=O)CC2)O[C@@H]2O[C@@]3(C)CC[C@H]4[C@H](C)CC[C@@H]1[C@@]24OO3 [Artemisone (ASO), Artemisone] | 15 | 10 | showed activity | 16 |  |  | 
12 | Ferroquine [Ferroquine (FQ)] | 23 | 7 | 12% | 4 |  |  | 
13 | Ivermectin [Ivermectin Liquida (IVM-li)] | 0 | 15 | 52% | 45 |  |  | % inhibition Vero E6 A2.5 MOI 0.01 ([2]; listed as IVM-li): ≥ 20%; % inhibition Calu-3 Delta MOI 0.01 ([3]; listed as IVM-l): ≥ 20%
14 | C[C@H]1[C@@H](OCc2ccc(C(=O)O)cc2)O[C@@H]2O[C@@]3(C)CC[C@H]4[C@H](C)CC[C@@H]1[C@@]24OO3 [Artelinic Acid (AA), Artelinic Acid] | 0 | 5 | 0% | 7 | 14% |  | 
15 | COc1ccc2nc3cc(Cl)ccc3c(Nc3cc(CN4CCCC4)c(O)c(CN4CCCC4)c3)c2n1 [Pyranoridine (PNO), Pyranoridine] | 43 | 6 | 0% | -1 | 1% | ≥ 20 | 
16 | O=C(Nc1cccc(C2=NCCN2)c1)Nc1cccc(C2=NCCN2)c1 [Imidocarb (IMI), Imidocarb] | 0 | 11 |  | 16 | 14% |  | 
17 | CCN(CC)Cc1cc(Nc2ccnc3cc(Cl)ccc23)ccc1O [Amodiaquine (AQ), Amodiaquine] | 42 | 11 | showed activity |  | showed activity | ≥ 20 | 
18 | CN(C)c1ccc2nc3ccc(=[N+](C)C)cc-3sc2c1 [Methylene Blue Injection (MBi), Methylene Blue] | 16 | 10 | 2% |  | 18% |  | 
19 | CCCCN(CCCC)CC(O)c1cc(Cl)cc2c1-c1ccc(Cl)cc1/C2=C/c1ccc(Cl)cc1 (stereo not drawn) [Lumefantrine (LUM), Lumefantrine] | 0 | 14 |  |  | 19% |  | 
20 | COc1c(C)c2c(c(O)c1C/C=C(\C)CCC(=O)O)C(=O)OC2 [Mycophenolic acid (MYC), Mycophenolic acid] | 40 | 7 | 0% | 5 | 11% | ≥ 20 | 
21 | CCc1nc(N)nc(N)c1-c1ccc(Cl)cc1 [Pyrimethamina (PYR), Pyrimethamina] | 34 | 9 | 0% | 3 | 0% | ≥ 20 | 
22 | COc1cc(C)c2c(Oc3cccc(C(F)(F)F)c3)c(OC)cc(NC(C)CCCN)c2n1 (stereo not drawn) [TQ, tafenoquine] |  |  |  |  |  |  | viral inhibition, secondary screening, Delta [1]: at least 20%
23 | Ivermectin [Ivermectin Farmacia (IVM-f)] | 44 | 5 |  | 5 | 16% | ≥ 20 | 
